Where two headings read alike, the source gives them in different places. *1 amine or outer side, *2 acyl side, *3 side chain or, on linkers, in order; H or OH if unused. Where a SMILES comes first, the peptide text is derived from it. Bridges are numbered along the chain shown (N, C = ends). [ ]: non-standard residue; d: D form. The star is where a group is joined. hPhe(3-Cl-4-CF3) = N[C@@H](CCc1ccc(C(F)(F)F)c(Cl)c1)C(=O)O; NPrPhe(4-CF3) = CCCN[C@@H](Cc1ccc(C(F)(F)F)cc1)C(=O)O; X45 = CCCN([C@@H](CC1CCC(F)(F)CC1)C(=O)[*:2])[*:1]; NMeGly(cPent) = CN[C@H](C(=O)O)C1CCCC1; Pro(4,4-F2) = O=C(O)[C@@H]1CC(F)(F)CN1; NMeD = CN[C@@H](CC(=O)O)C(=O)O; NMeL = CN[C@@H](CC(C)C)C(=O)O; NMeAbu = CC[C@H](NC)C(=O)O; Morpholide = C1CN(*)CCO1; NMeA = CN[C@@H](C)C(=O)O; dNMeA = CN[C@H](C)C(=O)O; Ac5c = NC1(C(=O)O)CCCC1; Aze = O=C(O)[C@@H]1CCN1; Sar = CNCC(=O)O
Tests used:
[1] = molecular target: GDP-bound NRAS wild-type protein (Homo sapiens, UniProt P01111); assay: Binding to NRAS by surface plasmon resonance (SPR), KD and KD ratio to KRAS
GDP-bound NRAS wild-type protein, sequence (P01111 whole entry): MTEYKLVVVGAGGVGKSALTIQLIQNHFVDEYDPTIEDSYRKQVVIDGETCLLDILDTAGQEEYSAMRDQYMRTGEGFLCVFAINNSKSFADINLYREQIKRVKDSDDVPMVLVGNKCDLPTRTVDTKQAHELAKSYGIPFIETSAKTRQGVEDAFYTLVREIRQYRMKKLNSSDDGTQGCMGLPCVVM
Outline: (§1)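 Recombinant RAS proteins bearing a biotinylated Avi tag and loaded with GDP served as the captured ligand, recaptured fresh every cycle. Binding responses were referenced to an uncoated surface and a buffer-only blank cycle. Dissociation constants were obtained by 1:1 model fitting at 30°C.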

HRAS wild-type protein = HRAS wild-type protein (Homo sapiens, UniProt P01112); assay: Binding to HRAS by surface plasmon resonance (SPR), KD and KD ratio to KRAS
HRAS wild-type protein, sequence (P01112 whole entry): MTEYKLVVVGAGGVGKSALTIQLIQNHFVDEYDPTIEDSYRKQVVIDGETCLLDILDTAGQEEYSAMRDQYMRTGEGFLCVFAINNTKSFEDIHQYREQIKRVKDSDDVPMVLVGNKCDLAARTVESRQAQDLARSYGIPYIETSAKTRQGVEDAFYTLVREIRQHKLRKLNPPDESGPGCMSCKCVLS
Outline: as §1

[2] = tested on: human lung cancer strain NCI-H441; format: cell-based
Outline: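 Signal came from […] measured per well once the reagent was added. Beforehand, cells were cultured at 37°C and 5% carbon dioxide on a compound series serially diluted in dimethyl sulfoxide.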

[3] = ratio of the KD value with respect to GDP-bound NRAS wild-type protein to the KD value with respect to KRAS
[4] = ratio of the KD value with respect to HRAS wild-type protein to the KD value with respect to KRAS
[5] = ratio of KD for GDP-bound NRAS wild-type protein to KD for KRAS
[6] = ratio of KD for HRAS wild-type protein to KD for KRAS

Row | SMILES | IC50 [2] | IC50 ([2]; NCI-H441 cells, 4 days, CellTiter-Glo, read-out: NCl-H441 IC50) | NRAS /KRAS [1, 3] | HRAS /KRAS (HRAS wild-type protein; [4]) | NRAS /KRAS ([1]; ratio of KD value for GDP-bound NRAS wild-type protein to KD value for KRAS (SPR)) | HRAS /KRAS (HRAS wild-type protein; ratio of KD value for HRAS wild-type protein to KD value for KRAS (SPR)) | NRAS /KRAS [1, 5] | HRAS /KRAS (HRAS wild-type protein; [6])
1 | CCO[C@@H]1C[C@H]2C(=O)NC3(CCC3)C(=O)N(C)[C@@H](C3CCCC3)C(=O)N(C)[C@H](C)CC(=O)N(C)[C@@H](CC3CC3)C(=O)N[C@@H]([C@@H](C)CC)C(=O)N(C)CC(=O)N(C)[C@H]3C/C=C\CCN(C3=O)[C@@H](Cc3ccc(F)cc3)C(=O)N(C)CC(=O)N[C@@H](CCc3cc(F)c(C(F)(F)F)c(F)c3)C(=O)N2C1 [PP1490] | 48.9 nM |  |  |  | B (a compound having 3 or more and less than 10 is denoted as B) | B (a compound having 3 or more and less than 10 is denoted as B) |  | 
2 | CCCN1C(=O)CN(C)C(=O)CN(C)C(=O)[C@H]([C@@H](C)CC)NC(=O)[C@H](CC(C)C)N(C)C(=O)C[C@@H](C(=O)N2CCOCC2)N(C)C(=O)[C@H](C2CCCC2)N(C)C(=O)C2(CCCC2)NC(=O)[C@@H]2CCCN2C(=O)[C@H](CCc2ccc(C(F)(F)F)c(Cl)c2)NC(=O)[C@@H](C)N(C)C(=O)[C@@H]1Cc1ccc(C(F)(F)F)cc1 [PP0148] ([NMeL]I[Sar][Sar][NPrPhe(4-CF3)][dNMeA][hPhe(3-Cl-4-CF3)]P[Ac5c][NMeGly(cPent)][NMeD]-Morpholide; lactam N-11) | 38 nM |  |  |  |  |  | B (a compound having 3 or more and less than 10 is denoted as B) | B (a compound having 3 or more and less than 10 is denoted as B)
3 | CCO[C@@H]1C[C@H]2C(=O)NC3(CC(C)(C)C3)C(=O)N(C)[C@@H](C3CCCC3)C(=O)N(C)[C@H](C(=O)N(C)C)CC(=O)N(C)[C@@H](CC(C)C)C(=O)N[C@@H]([C@@H](C)CC)C(=O)N(C)CC(=O)N(C)[C@H]3C/C=C\CCN(C3=O)[C@@H](Cc3ccc(C)c(F)c3)C(=O)N(C)CC(=O)N[C@@H](CCc3ccc(C(F)(F)F)c(OC)c3)C(=O)N2C1 [PP2689] |  | 6.2 nM |  |  |  |  | A (a compound having 10 or more and less than 20 is denoted as A) | B (a compound having 3 or more and less than 10 is denoted as B)

Second part, led by results:

Row | IC50 [2] | IC50 ([2]; NCI-H441 cells, 4 days, CellTiter-Glo, read-out: NCl-H441 IC50) | SMILES | NRAS /KRAS [1, 3] | HRAS /KRAS (HRAS wild-type protein; [4]) | NRAS /KRAS ([1]; ratio of KD value for GDP-bound NRAS wild-type protein to KD value for KRAS (SPR)) | HRAS /KRAS (HRAS wild-type protein; ratio of KD value for HRAS wild-type protein to KD value for KRAS (SPR)) | NRAS /KRAS [1, 5] | HRAS /KRAS (HRAS wild-type protein; [6])
4 | 6.6 nM |  | CCCN1C(=O)CN(C)C(=O)CN(C)C(=O)[C@H]([C@@H](C)CC)NC(=O)[C@H](CC(C)C)N(C)C(=O)C[C@@H](C(=O)N2CCOCC2)N(C)C(=O)[C@H](C2CCCC2)N(C)C(=O)C2(CCCC2)NC(=O)[C@@H]2CCCN2C(=O)[C@H](CCc2ccc(C(F)(F)F)c(Cl)c2)NC(=O)CN(C)C(=O)[C@@H]1CC1CCC(F)(F)CC1 [PP0526] ([NMeL]I[Sar][Sar][X45][Sar][hPhe(3-Cl-4-CF3)]P[Ac5c][NMeGly(cPent)][NMeD]-Morpholide; lactam N-11) | B (a compound having 3 or more and less than 10 is denoted as B) | C (A compound having a KD ratio of 0.1 or more and less than 3 is denoted as C) |  |  |  | 
5 | 2.2 nM |  | CCCN1C(=O)[C@@H]2CCN2C(=O)[C@H](C)N(C)C(=O)[C@H]([C@@H](C)CC)NC(=O)[C@H](CC)N(C)C(=O)C[C@@H](C(=O)N2CCOCC2)N(C)C(=O)[C@H](C2CCCC2)N(C)C(=O)C2(CCCC2)NC(=O)[C@@H]2CC(F)(F)CN2C(=O)[C@H](CCc2ccc(C(F)(F)F)c(Cl)c2)NC(=O)CN(C)C(=O)[C@@H]1Cc1ccc(C(F)(F)F)cc1 [PP0206] ([NMeAbu]I[NMeA][Aze][NPrPhe(4-CF3)][Sar][hPhe(3-Cl-4-CF3)][Pro(4,4-F2)][Ac5c][NMeGly(cPent)][NMeD]-Morpholide; lactam N-11) |  |  |  |  | C (A compound having a KD ratio of 0.1 or more and less than 3 is denoted as C) | B (a compound having 3 or more and less than 10 is denoted as B)
6 | 19 nM |  | CCO[C@@H]1C[C@H]2C(=O)NC3(CCC3)C(=O)N(C)[C@@H](C3CCCC3)C(=O)N(C)[C@H](C(=O)N(C)C)CC(=O)N(C)[C@@H](CC)C(=O)N[C@@H]([C@@H](C)CC)C(=O)N(C)CC(=O)N(C)[C@H]3CCCCN(C3=O)[C@@H](Cc3ccc(C(F)(F)F)cc3)C(=O)N(C)CC(=O)N[C@@H](CCc3ccc4sccc4c3)C(=O)N2C1 [PP0887] |  |  |  |  | C (A compound having a KD ratio of 0.1 or more and less than 3 is denoted as C) | C (A compound having a KD ratio of 0.1 or more and less than 3 is denoted as C)
7 | 14 nM |  | CC[C@H](C)[C@@H]1NC(=O)[C@H](CC(C)C)N(C)C(=O)C[C@@H](C(=O)N2CCOCC2)N(C)C(=O)[C@H](C2CCCC2)N(C)C(=O)C2(CCCC2)NC(=O)[C@@H]2CCCN2C(=O)[C@H](CCc2cc(F)c(C(F)(F)F)c(F)c2)NC(=O)CN(C)C(=O)[C@H](Cc2ccc(C(F)(F)F)cc2)N2CCCC[C@@H](C2=O)N(C)C(=O)CN(CC)C1=O [PP0545] | B (a compound having 3 or more and less than 10 is denoted as B) | B (a compound having 3 or more and less than 10 is denoted as B) |  |  |  | 

— EP4603105A1, “PHARMACEUTICAL COMPOSITION CONTAINING CYCLIC COMPOUND HAVING SELECTIVE KRAS INHIBITORY EFFECT AGAINST HRAS AND NRAS” (CHUGAI SEIYAKU KABUSHIKI KAISHA, priority 2022, dated 2024)
